PubChem BioAssay AID1288 (Columbia University Molecular Screening Center, 2008)
Calls of active or inactive are those of the source. How the calls were made is not given here.

Experiments:
[1] = inhibitors of TNFa-induced E-selectin expression, confirmation, imaging, retest plus dose response, cell count (AID 1288); details: human endothelial cells, TNFa-induced E-selectin, imaging; cell count toxicity; at 10 µM; stronger effect = lower value
[2] = system: human endothelial cells, TNFa-induced E-selectin, imaging; assay: as above

Row | Compound | cell count [1] [%] | IC50 [2]
1 | CCc1c(C)c(C#N)c2nc3ccccc3n2c1Cl | 70 | 1.98 µM
2 | O=C(Nc1ccc2oc(-c3cccnc3)nc2c1)c1ccc([N+](=O)[O-])o1 | 54.4 | 2.73 µM
3 | CCN1C/C(=C/c2ccc(OC)c(O)c2)C(=O)/C(=C/c2ccc(OC)c(O)c2)C1 | 15.1 | 3.01 µM
4 | CCOc1cc(C(=O)NCc2ccc(-c3nc4ccccc4o3)cc2)cc(OCC)c1OCC | 22.9 | 2.39 µM
5 | O=C(Nc1ccc2nc(SCc3ccc(Cl)cc3)sc2c1)c1ccccc1C(=O)N1CCOCC1 | 40 | 2.83 µM
6 | C=CCSc1nc2ccccc2n1C(=O)/C=C/c1cc(OC)c(OC)c(OC)c1 | 24.8 | 2.17 µM
7 | O=S1(=O)C=C(Sc2nnc(-c3ccccc3)o2)c2ccccc21 | 72.7 | > 10 µM (inactive)
8 | CCOC(=O)CS(=O)(=O)c1nc(-c2ccc(F)cc2)cc(C(F)(F)F)n1 | 98.3 | > 10 µM (inactive)
9 | CC1C/C(=C/c2ccncc2)C(=O)/C(=C/c2ccncc2)C1 (stereo not drawn) | 84.9 | 4.92 µM
10 | N#CC(C#N)=C1C=CC=CN1/C(=C\c1ccco1)C(=O)c1ccc(-c2ccccc2)cc1 | 2.93 | 2.85 µM
11 | COc1ccc(NC(=O)/C(Cl)=C(/Cl)S(=O)Cc2ccccc2Cl)cn1 (stereo not drawn) | 99.9 | 5.39 µM
12 | COCC(C)NC(=O)CCS(=O)(=O)c1nc(-c2ccc(OC)cc2)cc(C(F)(F)F)n1 (stereo not drawn) | 83 | > 10 µM (inactive)
13 | Cc1cc2cc(C=C(C#N)C#N)c(Cl)nc2cc1C | 4.88 | 2.39 µM
14 | Cc1ccc2nc(-c3ccc(NC(=O)CCN4C(=O)c5ccccc5C4=O)cc3)sc2c1 | 107 | > 10 µM (inactive)
15 | O=C(CS(=O)c1ccc(C(F)(F)F)cc1[N+](=O)[O-])Oc1ccccc1 (stereo not drawn) | 88.5 | > 10 µM (inactive)
16 | O=C(Cn1ncc(Cl)c(Cl)c1=O)N1CCc2ccccc21 | 40 | 2.48 µM
17 | CN(C)c1nc(C=C(C#N)C#N)c(Cl)n1-c1ccc(F)cc1 | 46.6 | 1.74 µM
18 | O=C(OCn1ncc(Br)c(Br)c1=O)c1ccc(F)cc1 | 53.9 | > 10 µM (inactive)
19 | Cc1cc(C)cc(NC(=O)c2ccc([N+](=O)[O-])o2)c1 | 98.3 | 2.11 µM
20 | O=C(/C=C/c1cccc([N+](=O)[O-])c1)n1cnc2ccccc21 | 19.1 | 3.81 µM
21 | O=C(OCn1ncc(Cl)c(Cl)c1=O)c1cccc(C(F)(F)F)c1 | 102 | > 10 µM (inactive)
22 | CN1C(=O)/C(=C/c2cccn2-c2ccc3ccccc3c2)C(=O)NC1=S | 106 | 6.93 µM
23 | CCOC(=O)/C=C/S(=O)(=O)c1ccc(NC(C)=O)cc1 | 6.27 | 1.39 µM
24 | CCOC(=O)CS(=O)(=O)c1nc(-c2ccccc2)cc(C(F)(F)F)n1 | 106 | > 10 µM (inactive)
25 | O=C(Nc1ccccc1)c1nnsc1S(=O)c1ccc(Cl)cc1 (stereo not drawn) | 16.1 | 3.58 µM
26 | C=CS(=O)(=O)c1ccc(Oc2ccc(S(=O)(=O)C=C)cc2)cc1 | 95.2 | > 10 µM (inactive)
27 | Cc1ccc(Cl)c(NC(=O)COC(=O)c2ccccc2C(=O)c2ccc(Cl)c([N+](=O)[O-])c2)c1Cl | 96.8 | > 10 µM (inactive)
28 | COc1cc(NC(=O)Cn2ncc(Cl)c(Cl)c2=O)c(C)cc1[N+](=O)[O-] | 90.1 | > 10 µM (inactive)
29 | Cc1ccc(-c2nc(NC(=O)c3nn(C)cc3[N+](=O)[O-])sc2C)cc1 | 69.6 | 5.25 µM
